# Laboratory results reported in PMC3602417 (MedChemComm, 2013).
# Read-outs that look alike come from different tables or passages of the source.
# What was measured:
# METH-evoked DA release = conditions: cited from earlier work
# nAChRs = conditions: cited from earlier work
# rats [1] = conditions: cited from earlier work
# water solubility = format: physicochemical
# rats [2] = conditions: cited from earlier work; remark: listed apart in the source
# rats [3] = conditions: cited from earlier work; remark: listed apart in the source
# VMAT2 [4] = target: T1, VMAT2 (Rattus norvegicus, UniProt Q01827); conditions: cited from earlier work
# T1 sequence (Q01827 whole entry): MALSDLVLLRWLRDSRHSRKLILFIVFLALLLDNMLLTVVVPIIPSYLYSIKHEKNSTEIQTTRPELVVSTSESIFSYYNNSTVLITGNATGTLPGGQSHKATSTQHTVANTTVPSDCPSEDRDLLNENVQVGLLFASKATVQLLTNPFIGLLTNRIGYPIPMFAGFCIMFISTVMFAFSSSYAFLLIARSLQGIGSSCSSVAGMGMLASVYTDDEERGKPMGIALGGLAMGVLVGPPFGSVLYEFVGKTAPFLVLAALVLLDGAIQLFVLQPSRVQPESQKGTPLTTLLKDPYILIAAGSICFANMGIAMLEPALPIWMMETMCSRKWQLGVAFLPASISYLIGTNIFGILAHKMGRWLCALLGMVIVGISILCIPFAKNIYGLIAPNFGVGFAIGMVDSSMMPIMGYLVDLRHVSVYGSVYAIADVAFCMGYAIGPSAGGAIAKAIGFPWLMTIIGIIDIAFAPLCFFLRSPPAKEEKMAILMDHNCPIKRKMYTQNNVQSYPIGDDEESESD
# VMAT2 [5] = target: T1, VMAT2; conditions: read-out: [3H]DTBZ Ki ± SEM; Table 1; rat synaptic vesicle membranes; ref 12b; cited from earlier work
# VMAT2 [6] = target: T1, VMAT2; experiment: inhibition of [3H]DA uptake into rat striatal synaptic vesicles; format: biochemical
# VMAT2 [7] = target: T1, VMAT2; experiment: [3H]DTBZ binding to rat synaptic vesicle membranes
# rats [8] = experiment: METH self-administration; format: in vivo, rat; conditions: preliminary data
# rats [9] = conditions: cited from earlier work; remark: listed apart in the source
# [10] = cited from earlier work
structure (smiles),measurement,setting,value
"CN1[C@@H](CC(=O)c2ccccc2)CCC[C@H]1C[C@H](O)c1ccccc1 [Compound 1, (−)-lobeline]",effect on METH-evoked DA release,METH-evoked DA release; rat striatal slices,inhibits METH-evoked DA release from rat striatal slices
same,affinity at nAChR α4β2* subtype,nAChRs; α4β2* subtype,high affinity
same,effect on METH-induced behavioral effects,rats [1],attenuates METH-induced behavioral effects
"CN1[C@@H](CCc2ccccc2)CCC[C@H]1CCc1ccccc1 [Compound 2, lobelane, reference compound]",water solubility,water solubility,low water solubility
same,effect on METH self-administration (SA),rats [2]; rats,dose-dependently decreases METH self-administration
same,effect on food-maintained responding,rats [3],without altering food-maintained responding
same,activity at nAChRs,nAChRs; compared to lobeline,negligible activity
"c1ccc(CC[C@H]2CCC[C@@H](CCc3ccccc3)N2)cc1 [Compound 3, nor-lobelane]",potency for VMAT2 binding and inhibition relative to lobelane,VMAT2 [4],equal potency to lobelane
CCN1[C@@H](CCc2ccccc2)CCC[C@H]1CCc1ccccc1 [Compound 4],Ki,VMAT2 [5],3410 ± 670 nM
CCCN1[C@@H](CCc2ccccc2)CCC[C@H]1CCc1ccccc1 [Compound 5],Ki,VMAT2 [5],1870 ± 250 nM
N#CCN1[C@@H](CCc2ccccc2)CCC[C@H]1CCc1ccccc1 [Compound 8],fold lower potency in inhibiting [3H]DA uptake at VMAT2 compared to lobelane,VMAT2 [6]; relative to lobelane,100 fold
CN(C)N1[C@@H](CCc2ccccc2)CCC[C@H]1CCc1ccccc1 [Compound 13],affinity at the [3H]DTBZ binding site,VMAT2 [7],no affinity
same,potency inhibiting [3H]DA uptake at VMAT2 relative to lobelane,VMAT2 [6],equipotent to lobelane
OC[C@H](O)CN1[C@@H](CCc2ccccc2)CCC[C@H]1CCc1ccccc1 [Compound 14a],"effect on METH SA, preliminary in vivo screens",rats [8],decrease in METH SA in rats
COc1ccc(CC[C@H]2CCC[C@@H](CCc3ccc(OC)cc3)N2C[C@@H](O)CO)cc1 [Compound 19a],effect on METH-evoked DA release,METH-evoked DA release; vesicles and striatal slices,decreasing METH-evoked DA release from vesicles and striatal slices without intrinsic activity
same,duration of action to inhibit METH SA within a behavioral session,rats [2]; compared to lobeline and lobelane,significantly increased duration of action
same,effect on METH SA,rats [2]; rats,effectively decreases
same,tolerance to decrease of METH SA and CPP after repeated dosing,rats [2]; repeated dosing,not observed
same,effect on METH CPP,rats [9],effectively decreases
same,effect on food-maintained responding,rats [3],without altering food-maintained responding
same,CPP produced by the compound (abuse liability),[10],does not produce CPP
same,self-administration of the compound (abuse liability),[10],not self-administered
